Reference: patent US20150065447A1, “SURVIVAL BENEFIT IN PATIENTS WITH SOLID TUMORS WITH ELEVATED C-REACTIVE PROTEIN LEVELS” (Incyte Corporation, priority 2013, published 2015)
pIC50: −log10 of the molar value. Values joined by “and” are separate entries in the source; they are usually repeats but may differ in a detail not shown here. Equal entries are not always repeated. Values belong to the compound of their own block, whether it stands above or below them.

Key:
[1] = biological target: T1, human JAK1 (a.a. 837-1142) (Homo sapiens, UniProt P23458); experiment: In vitro JAK Kinase Assay (HTRF), JAK1; assay type: biochemical; conditions: 1 mM ATP
T1 construct: human JAK1 (a.a. 837-1142); His tag (N); made in house; host or cells: insect cells (baculovirus)
Protocol: (§1) The catalytic activity of JAK1 and JAK2 was assayed by measuring the phosphorylation of a biotinylated peptide. The phosphorylated peptide was detected by homogenous time resolved fluorescence (HTRF). […] Reactions were carried out at room temperature for 1 hr and then stopped with 20 μL 45 mM EDTA, 300 nM SA-APC, 6 nM Eu-Py20 in assay buffer (Perkin Elmer, Boston, Mass.). Binding to the Europium labeled antibody took place for 40 minutes and HTRF signal was measured on a Fusion plate reader (Perkin Elmer, Boston, Mass.).

[2] = biological target: T2, human JAK2 (a.a. 828-1132) (Homo sapiens, UniProt O60674); experiment: In vitro JAK Kinase Assay (HTRF), JAK2 (for JAK2/JAK1 ratio); assay type: biochemical; conditions: ratio of IC50s, 1 mM ATP
T2 construct: JAK2 (a.a. 828-1132); His tag (N); made in house; host or cells: insect cells (baculovirus)
Protocol: as §1

[3] = test system: Subjects with metastatic pancreatic adenocarcinoma that is recurrent or treatment refractory; experiment: Randomized, double-blind study of capecitabine + ruxolitinib phosphate vs capecitabine + placebo, survival by baseline CRP / mGPS; conditions: for Hazard ratio (Rux/Pbo): Cox regression with formal interaction testing; for Active vs Control Hazard Ratio: ruxolitinib vs placebo; for Number of Subjects with Disease Progression, Observed: progression-free survival (death or progressive disease by RECIST 1.1)
Protocol: Baseline C-reactive protein (CRP) levels were measured for each patient prior to treatment in Arm 1 and Arm 2. Serum CRP concentrations were measured by RMB (RBM multiplexed Luminex®) commercial assay (Myriad RBM). […] The baseline CRP level was calculated on a per patient basis. The patients comprised two groups. Group 1 included all patients who were randomized and took Study Drug. […] For Group 1, the CRP level was the last tested CRP level taken before first dose of Study Drug. For Group 2, the last available value of CRP was taken, if available, for example from screening procedures. With baseline CRP levels for all patients, the median was calculated using normal statistical methods known to one skilled in the art.

[4] = Cox regression analysis of overall survival using baseline predictors, CRP > 13 mg/L, ruxolitinib arm
[5] = overall survival, C-Reactive Protein > 13 (μg/mL), Intent-to-Treat, capecitabine + ruxolitinib arm, N = 31
[6] = overall survival, C-Reactive Protein > 13 (μg/mL), ruxolitinib arm, N = 31
[7] = overall survival, C-Reactive Protein ≦ 13 (μg/mL), Intent-to-Treat, capecitabine + ruxolitinib arm, N = 28
[8] = overall survival, C-Reactive Protein ≦ 13 (μg/mL), ruxolitinib arm, N = 28
[9] = patients with CRP<13 mg/L, ruxolitinib group
[10] = patients with CRP>13 mg/L, ruxolitinib group
[11] = progression-free survival, Table 3, C-Reactive Protein ≦ 13 (μg/mL), ruxolitinib arm, N = 28
[12] = progression-free survival, Table 4, C-Reactive Protein ≦ 13 (μg/mL), ruxolitinib arm, N = 31

T2 sequence (O60674 828-1132): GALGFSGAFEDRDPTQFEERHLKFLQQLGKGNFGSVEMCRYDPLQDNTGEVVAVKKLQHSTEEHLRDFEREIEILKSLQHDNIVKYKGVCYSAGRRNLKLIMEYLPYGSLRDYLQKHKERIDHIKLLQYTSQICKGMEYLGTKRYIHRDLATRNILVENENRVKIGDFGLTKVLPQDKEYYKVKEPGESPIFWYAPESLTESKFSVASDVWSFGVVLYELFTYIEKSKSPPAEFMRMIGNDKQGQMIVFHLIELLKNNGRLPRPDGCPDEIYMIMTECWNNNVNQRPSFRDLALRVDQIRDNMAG
T1 sequence (P23458 849-1154): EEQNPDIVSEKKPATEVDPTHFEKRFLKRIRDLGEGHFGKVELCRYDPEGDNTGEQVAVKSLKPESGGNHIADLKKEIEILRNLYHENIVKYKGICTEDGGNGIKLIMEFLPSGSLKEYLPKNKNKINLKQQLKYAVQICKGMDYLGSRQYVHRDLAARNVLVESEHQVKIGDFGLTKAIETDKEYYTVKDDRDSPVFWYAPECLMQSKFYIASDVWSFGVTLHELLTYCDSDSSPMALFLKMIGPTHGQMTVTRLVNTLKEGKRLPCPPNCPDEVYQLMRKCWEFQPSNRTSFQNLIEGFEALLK

pIC50 [1]: > 8.00
JAK2/JAK1 [2]: >10
SMILES: N#CCC(C1CCN(c2cccc(Cl)n2)C1)n1cc(-c2ncnc3[nH]ccc23)cn1 (single isomer, unassigned) [Compound 3, 3-[1-(6-chloropyridin-2-yl)pyrrolidin-3-yl]-3-[4-(7H-pyrrolo[2,3-d]pyrimidin-4-yl)-1H-pyrazol-1-yl]propanenitrile]

pIC50 [1]: > 7.00
JAK2/JAK1 [2]: >10
SMILES: C[C@@H](O)c1nc2cnc3ccsc3c2n1[C@H]1CC[C@H](CC#N)OC1 [Compound 1, ((2R,5S)-5-{2-[(1R)-1-hydroxyethyl]-1H-imidazo[4,5-d]thieno[3,2-b]pyridin-1-yl}tetrahydro-2H-pyran-2-yl)acetonitrile]

pIC50 [1]: > 8.00
JAK2/JAK1 [2]: >10
SMILES: N#CCC(C1CCN(c2nc3cccnc3o2)C1)n1cc(-c2ncnc3[nH]ccc23)cn1 (stereo not shown) [Compound 4, 3-(1-[1,3]oxazolo[5,4-b]pyridin-2-ylpyrrolidin-3-yl)-3-[4-(7H-pyrrolo[2,3-d]pyrimidin-4-yl)-1H-pyrazol-1-yl]propanenitrile]

pIC50 [1]: > 8.00
JAK2/JAK1 [2]: >10
SMILES: N#CCC(CN1CCN(C(=O)c2ccc(C#N)cc2F)CC1)n1cc(-c2ncnc3[nH]ccc23)cn1 (stereo not shown) [Compound 5, 4-[(4-{3-cyano-2-[4-(7H-pyrrolo[2,3-d]pyrimidin-4-yl)-1H-pyrazol-1-yl]propyl}piperazin-1-yl)carbonyl]-3-fluorobenzonitrile]

pIC50 [1]: > 8.00
JAK2/JAK1 [2]: >10
SMILES: N#CCC(CN1CCN(C(=O)c2ccc(C#N)cc2F)CC1)n1ccc(-c2ncnc3[nH]ccc23)c1 (stereo not drawn) [Compound 6, 4-[(4-{3-cyano-2-[3-(7H-pyrrolo[2,3-d]pyrimidin-4-yl)-1H-pyrrol-1-yl]propyl}piperazin-l-yl)carbonyl]-3-fluorobenzonitrile]

pIC50 [1]: > 8.00
JAK2/JAK1 [2]: >10
SMILES: N#CCC1(n2cc(-c3ncnc4[nH]ccc34)cn2)CN(C2CCN(C(=O)c3ccnc(C(F)(F)F)c3F)CC2)C1 [Compound 7, {l-{l-[3-Fluoro-2-(trifluoromethyl)isonicotinoyl]piperidin-4-yl}-3-[4-(7H-pyrrolo[2,3-d]pyrimidin-4-yl)-1H-pyrazol-1-yl]azetidin-3-yl}acetonitrile]

pIC50 [1]: > 8.00
JAK2/JAK1 [2]: >10
SMILES: N#CCC1(n2cc(-c3ncnc4[nH]ccc34)cn2)CN(C2CCN(C(=O)Nc3ccc(F)cc3C(F)(F)F)CC2)C1 [Compound 8, 4-{3-(Cyanomethyl)-3-[4-(7H-pyrrolo[2,3-d]pyrimidin-4-yl)-1H-pyrazol-1-yl]azetidin-1-yl}-N-[4-fluoro-2-(trifluoromethyl)phenyl]piperidine-1-carboxamide]

pIC50 [1]: > 8.00
JAK2/JAK1 [2]: >10
SMILES: N#CCC1(n2cc(-c3ncnc4[nH]ccc34)cn2)CN(C2CCN(C(=O)c3ccnc(C(F)(F)F)n3)CC2)C1 [Compound 9, [3-[4-(7H-pyrrolo[2,3-d]pyrimidin-4-yl)-1H-pyrazol-1-yl]-1-(l-{[2-(trifluoromethyl)pyrimidin-4-yl]carbonyl}piperidin-4-yl)azetidin-3-yl]acetonitrile]

pIC50 [1]: > 8.00
JAK2/JAK1 [2]: >10
SMILES: N#CC[C@]1(n2cc(-c3ncnc4[nH]ccc34)cn2)C[C@H](N2CCN(C(=O)c3ccnc(C(F)(F)F)n3)CC2)C1 [Compound 10, [trans-1-[4-(7H-pyrrolo[2,3-d]pyrimidin-4-yl)-1H-pyrazol-1-yl]-3-(4-{[2-(trifluoromethyl)pyrimidin-4-yl]carbonyl}piperazin-1-yl)cyclobutyl]acetonitrile]

pIC50 [1]: > 8.00
JAK2/JAK1 [2]: >10
SMILES: N#CC[C@]1(n2cc(-c3ncnc4[nH]ccc34)cn2)C[C@H](N2CCC(Oc3cc(CN4CC(O)C4)cc(C(F)(F)F)n3)CC2)C1 [Compound 11, {trans-3-(4-{[4-[(3-hydroxyazetidin-1-yl)methyl]-6-(trifluoromethyl)pyridin-2-yl]oxy}piperidin-1-yl)-1-[4-(7H-pyrrolo[2,3-d]pyrimidin-4-yl)-1H-pyrazol-1-yl]cyclobutyl}acetonitrile]

pIC50 [1]: > 8.00
JAK2/JAK1 [2]: >10
SMILES: N#CC[C@]1(n2cc(-c3ncnc4[nH]ccc34)cn2)C[C@H](N2CCC(Oc3cc(CN4CCC[C@H]4CO)cc(C(F)(F)F)n3)CC2)C1 [Compound 12, {trans-3-(4-{[4-{[(2S)-2-(hydroxymethyl)pyrrolidin-1-yl]methyl}-6-(trifluoromethyl)pyridin-2-yl]oxy}piperidin-1-yl)-1-[4-(7H-pyrrolo[2,3-d]pyrimidin-4-yl)-1H-pyrazol-1-yl]cyclobutyl}acetonitrile]

pIC50 [1]: > 8.00
JAK2/JAK1 [2]: >10
SMILES: N#CC[C@]1(n2cc(-c3ncnc4[nH]ccc34)cn2)C[C@H](N2CCC(Oc3cc(CN4CCC[C@@H]4CO)cc(C(F)(F)F)n3)CC2)C1 [Compound 13, {trans-3-(4-{[4-{[(2R)-2-(hydroxymethyl)pyrrolidin-1-yl]methyl}-6-(trifluoromethyl)pyridin-2-yl]oxy}piperidin-1-yl)-1-[4-(7H-pyrrolo[2,3-d]pyrimidin-4-yl)-1H-pyrazol-1-yl]cyclobutyl}acetonitrile]

pIC50 [1]: > 8.00
JAK2/JAK1 [2]: >10
SMILES: C[C@H](NC(=O)c1cc(F)c(N2CC(CC#N)(n3cc(-c4ncnc5[nH]ccc45)cn3)C2)cc1F)C(F)(F)F [Compound 16, 4-{3-(cyanomethyl)-3-[4-(7H-pyrrolo[2,3-d]pyrimidin-4-yl)-1H-pyrazol-1-yl]azetidin-1-yl}-2,5-difluoro-N-[(1S)-2,2,2-trifluoro-1-methylethyl]benzamide]

SMILES: N#CC[C@H](C1CCCC1)n1cc(-c2ncnc3[nH]ccc23)cn1 [Ruxolitinib, ruxolitinib]
(%) subjects Censored [3, 4]: (20.0) %
(%) subjects who died, Observed [3, 4]: (80.0) %
Number subjects Censored [3, 4]: 6
Number subjects who died, Observed [3, 4]: 24
Hazard ratio (Rux/Pbo) ([3]; subgroup CRP > 13 mg/L): 0.473
Hazard ratio (Rux/Pbo) ([3]; subgroup Karnofsky: 60-80): 0.799
Hazard ratio (Rux/Pbo) ([3]; subgroup Low albumin): 0.618
HR for progression-free survival (PFS) ([3]; intent-to-treat analysis including all randomized patients): 0.75
(%) of Subjects Censored [3, 5]: ( 19.4%)
(%) of Subjects Died, Observed [3, 5]: ( 80.6%)
Number of Subjects Censored [3, 5]: 6
Number of Subjects Died, Observed [3, 5]: 25
Median Time to Event [3, 6]: 83.0 days
Month 3 Survival Rate(%) [3, 6]: 48.4%
Month 6 Survival Rate(%) [3, 6]: 41.5%
Month 9 Survival Rate(%) [3, 6]: 16.5%
Month 12 Survival Rate(%) [3, 6]: 11.0%
Active vs Control Hazard Ratio ([3]; overall survival, C-Reactive Protein > 13 (μg/mL), Cox regression): 0.473
(%) of Subjects Censored [3, 7]: ( 28.6%)
(%) of Subjects Died, Observed [3, 7]: ( 71.4%)
Number of Subjects Censored [3, 7]: 8
Number of Subjects Died, Observed [3, 7]: 20
Median Time to Event [3, 8]: 185.5 days
Month 3 Survival Rate(%) [3, 8]: 82.1%
Month 6 Survival Rate(%) [3, 8]: 50.0%
Month 9 Survival Rate(%) [3, 8]: 37.3%
Month 12 Survival Rate(%) [3, 8]: 19.9%
Active vs Control Hazard Ratio ([3]; overall survival, C-Reactive Protein ≦ 13 (μg/mL), Cox regression): 0.887
Hazard Ratio, Treatment (ruxolitinib vs placebo) ([3]; overall survival, CRP > 13 mg/L, Cox regression accounting for baseline characteristics): 0.50 and 0.501
hazard ratio for PFS ([3]; patients with CRP<13 mg/L): 0.82
probability of PFS at 3 months [3, 9]: 39%
probability of PFS at 6 months [3, 9]: 25%
probability of PFS at 9 months [3, 9]: 10%
HR for PFS ([3]; patients with CRP>13 mg/L): 0.62
proportion showing disease stabilization (RECIST v1.1) ([3]; patients with CRP>13 mg/L receiving ruxolitinib with postbaseline assessments (N=19)): 68.4%
probability of progression-free survival at 3 months [3, 10]: 35%
probability of progression-free survival at 6 months [3, 10]: 21%
probability of progression-free survival at 9 months [3, 10]: 11%
HR for OS ([3]; patients with mGPS of 0 (N=51)): 0.91
HR for OS ([3]; patients with mGPS of 1 (N=34)): 0.71
HR for OS ([3]; patients with mGPS of 2 (N=36)): 0.49
HR (survival) ([3]; post-hoc analysis, patients with CRP≦10 mg/L (N=51)): 0.91
HR in favor of ruxolitinib (survival) ([3]; post-hoc analysis, patients with a CRP>10 mg/L (N=70)): 0.60
Number of Subjects with Disease Progression, Observed ([3]; Table 3, C-Reactive Protein ≦ 13 (μg/mL), ruxolitinib arm, N = 28): 26
Number of Subjects with Disease Progression, Observed ([3]; Table 4, C-Reactive Protein ≦ 13 (μg/mL), ruxolitinib arm, N = 31): 26
(%) of Subjects Censored [3, 11]: ( 7.1%)
(%) of Subjects with Disease Progression, Observed [3, 11]: ( 92.9%)
Median Time to Event [3, 11]: 80.0 days
Month 3 Survival Rate(%) [3, 11]: 39.3%
Month 6 Survival Rate(%) [3, 11]: 25.0%
Month 9 Survival Rate(%) [3, 11]: 10.0%
Number of Subjects Censored [3, 11]: 2
Active vs Control Hazard Ratio ([3]; progression-free survival, Table 3, C-Reactive Protein ≦ 13 (μg/mL)): 0.818
(%) of Subjects Censored [3, 12]: ( 16.1%)
(%) of Subjects with Disease Progression, Observed [3, 12]: ( 83.9%)
Median Time to Event [3, 12]: 48.0 days
Month 3 Survival Rate(%) [3, 12]: 34.5%
Month 6 Survival Rate(%) [3, 12]: 20.7%
Month 9 Survival Rate(%) [3, 12]: 11.0%
Month 12 Survival Rate(%) [3, 12]: 0.0%
Number of Subjects Censored [3, 12]: 5
Active vs Control Hazard Ratio ([3]; progression-free survival, Table 4, C-Reactive Protein ≦ 13 (μg/mL)): 0.619
